SMILES strings stand for the structures.

One assay relates to P. falciparum (FCR3). In words: Enhancement of chloroquine potency: [3H]-hypoxanthine incorporation into chloroquine-resistant P. falciparum (FCR3) in vitro. In kind it is cell-based, Plasmodium falciparum. As to conditions: chloroquine IC50 with compound at 200 ng/ml as percent of chloroquine-alone IC50.
As for `CN(C)C[C@H]1Cc2ccccc2[C@H]1Oc1ccc(C(F)(F)F)cc1.Cl` (relative stereo) [1 0 1 p-CF3 --CH2 -- CH3 CH3 O cis, cis-2,3-dihydro-N,N-dimethyl-1-[4-(trifluoromethyl)-phenoxy]-1H-indene-2-methanamine hydrochloride], the “Percent of IC50 of Chloroquine Alone” value was found to be 55%.
As to `CN(C)C[C@@H]1Cc2ccccc2[C@@H]1Oc1ccc(Br)cc1` (relative stereo) [1 0 1 p-Br --CH2 -- CH3 CH3 O cis, CIS-1-(4-romophenoxy)-2,3-dihydro-N,N-dimethyl-1H-indene-2-methanamine ethanedioate], the “Percent of IC50 of Chloroquine Alone” value turned out to be 68%.
For `CN(C)CC1Cc2ccccc2C1Oc1ccccc1` (stereo not drawn) [1 0 0 -- --CH2 -- CH3 CH3 O --, 2,3-dihydro-N,N-dimethyl-1-phenoxy-1H-indene-2-methanamine], the “Percent of IC50 of Chloroquine Alone” value turned out to be 10%.
On to `CN(C)C[C@H]1Cc2ccccc2[C@H]1Oc1ccc2c(c1)OCO2.O=C(O)C(=O)O` (relative stereo) [1 0 2 --OCH2 O-- --CH2 -- CH3 CH3 O cis, CIS 1-(1,3-benzodioxol-5-yloxy)-2,3-dihydro-N,N-dimethyl-1H-indene-2-methanamine ethanedioate (1:1)], for which the “Percent of IC50 of Chloroquine Alone” value worked out at 25%.
`CNC[C@H]1Cc2ccccc2[C@H]1Oc1ccccc1OC` (relative stereo) [1 0 1 O--OCH3 --CH2 -- CH3 H O --, cis-2,3-dihydro-1-(2-methoxyphenoxy)-N-methyl-1H-indene-2-methanamine]: the “Percent of IC50 of Chloroquine Alone” value was 13%.
Regarding `CNC[C@@H]1Cc2ccccc2[C@@H]1Oc1ccccc1C(F)(F)F` (relative stereo) [1 0 1 O--CF3 --CH2 -- CH3 H O cis, CIS-2,3-dihydro-N-methyl-1-(2-trifluoromethylphenoxy)-H-indene-2-methanamine ethanedioate (1:1)], the “Percent of IC50 of Chloroquine Alone” value worked out at 22%.
In the case of `CN(C)C[C@H]1Cc2ccccc2[C@@H]1Oc1ccc(Cl)c(Cl)c1` (relative stereo) [1 0 2 m,p-(Cl)2 --CH2 -- CH3 CH3 O trans], the “Percent of IC50 of Chloroquine Alone” value stood at 43%.
The same measure, in the same setting: the result for `CN(C)C[C@@H]1Cc2ccccc2[C@H]1Oc1ccc2c(c1)OCO2.O=C(O)C(=O)O` (relative stereo) [TRANS 1-(1,3-benzodioxol-5-yloxy)-2,3-dihydro-N,N-dimethyl-1H-indene-2-methanamine ethanedioate (1:1)] reads 75%; that for `CN(C)C[C@H]1Cc2ccccc2[C@H]1Sc1ccccc1.O=C(O)C(=O)O` (relative stereo) [1 0 0 -- --CH2 -- CH3 CH3 S cis, cis-2,3-dihydro-N,N-dimethyl-1-(phenylthio)-1H-indene-2-methanamine, ethanedioate], 14%.

The next assay concerns chloroquine-resistant P. falciparum (FCR3). In words: Isobologram analysis of synergism with chloroquine, hypoxanthine incorporation (FIG. 1). Conditions: IC50 for hypoxanthine incorporation. In kind it is cell-based, Plasmodium falciparum. The method, then: FIG. 1 illustrates the synergism of 1-(3,4-dichloro-phenoxy)-2,3-dihydro-N,N-dimethyl-1H-Indene-2-methanamine and chloroquine against chloroquine-resistant P. falciparum (FCR3). Isobologram analysis was carried out according to the method of Martin, et al., (1987) Science 235, 899-901 and Berenbaum, (1978) Journal of Infectious Diseases 137, 122-130. […] The X-axis is the IC50 concentration of drug which inhibits hypoxanthine incorporation by 50%) of chloroquine in the absence or presence of 1-(3,4-dichlorophenoxy)-2,3-dihydro-N,N-dimethyl-1H-Indene-2-methanamine while the Y-axis is the IC50 for 1-(3,4-dichlorophenoxy)-2,3-dihydro-N,N-dimethyl-1H-Indene-2-methanamine in the absence or presence of chloroquine.
P. falciparum (clone D6, chloroquine-sensitive; strain FCR3, chloroquine-resistant; and clone W2, multidrug-resistant) was grown in vitro by the method of Trager and Jensen, (1976) Science 193, 673-675.
Take `CN(C)CC1Cc2ccccc2C1Oc1ccc(Cl)c(Cl)c1` (stereo not drawn) [1-(3,4-dichlorophenoxy)-2,3-dihydro-N,N-dimethyl-1H-Indene-2-methanamine]: the “synergism of the combination with chloroquine” value is given as “highly synergistic”.

The next assay has as its system P. falciparum.
Assay: not given
Conditions: recently reported; by interfering with riboflavin metabolism; cited from earlier work.
Consider `CN(C)CCCN1c2ccccc2CCc2ccccc21` [imipramine], for which the P. falciparum growth entry is recorded as “suppress P. falciparum growth”.
For `CN(C)CCC=C1c2ccccc2CCc2ccccc21` [amitryptyline], the P. falciparum growth entry is given as “suppress P. falciparum growth”.

Values taken from US5134168A, “Phenoxy and phenylthio, amino substituted benzocycloalkane derivatives in the treatment and prevention of drug-resistant protozoal infections” (Merrell Dow Pharmaceuticals Inc., priority 1991, dated 1992).
